According to ChEMBL document CHEMBL3769323, “Design, synthesis and bioevaluation of tacrine hybrids with cinnamate and cinnamylidene acetate derivatives as potential anti-Alzheimer drugs” (Medchemcomm, 2015):
pEC50, pIC50: −log10 of the molar value. Calls of active or inactive are those of the source. The rule behind the calls is not given here.

How the values were obtained:
Acetylcholinesterase = Acetylcholinesterase (Electrophorus electricus, UniProt O42275); test: Inhibition of electric eel AChE preincubated for 15 mins followed by addition of acetylcholine iodide as substrate by Ellman's assay
[1] = Antioxidant activity assessed as DPPH radical scavenging activity at 1 mM after 30 mins; type: physicochemical; settings: 0.5 h, 1000 µM
SH-SY5Y [2] = test: Cytotoxicity against human SH-SY5Y cells assessed as cell viability at 1.5 uM after 25 hrs by MTT assay relative to control; type: cell-based
[3] = Cytotoxicity against ovarian cancer cells (unknown origin); type: cell-based; settings: Cancer cell lines
[4] = target: Amyloid-beta precursor protein (Homo sapiens) (UniProt P05067); test: Inhibition of Amyloid beta (1 to 42) (unknown origin) self-induced aggregation at 80 uM for 24 hrs by Thioflavin T-based fluorometric assay
SH-SY5Y [5] = test: Cytotoxicity against human SH-SY5Y cells assessed as cell viability at 1.5 to 5 uM after 25 hrs by MTT assay; type: cell-based
SH-SY5Y [6] = test: Neuroprotective activity against human SH-SY5Y cells assessed as reduction of Amyloid beta 42-induced cytotoxicity at 2.5 uM preincubated with compound for 1 hr followed by Amyloid beta 42 peptide addition for 24 hrs by MTT reduction assay; type: functional, cell-based
[7] = Antioxidant activity assessed as DPPH radical scavenging activity after 30 mins; type: physicochemical
SH-SY5Y [8] = test: Neuroprotective activity against human SH-SY5Y cells assessed as reduction of H2O2-induced oxidative stress at 5 uM preincubated with compound for 1 hr followed by H2O2 addition for 24 hrs by MTT reduction assay; type: functional, cell-based
SH-SY5Y [9] = test: Neuroprotective activity against human SH-SY5Y cells assessed as reduction of H2O2-induced oxidative stress at 2.5 uM preincubated with compound for 1 hr followed by H2O2 addition for 24 hrs by MTT reduction assay; type: functional, cell-based
SH-SY5Y [10] = test: Cytotoxicity against human SH-SY5Y cells assessed as cell viability at 2.5 uM after 25 hrs by MTT assay relative to control; type: cell-based

Sequence of Amyloid-beta precursor protein (Homo sapiens) (P05067 whole entry): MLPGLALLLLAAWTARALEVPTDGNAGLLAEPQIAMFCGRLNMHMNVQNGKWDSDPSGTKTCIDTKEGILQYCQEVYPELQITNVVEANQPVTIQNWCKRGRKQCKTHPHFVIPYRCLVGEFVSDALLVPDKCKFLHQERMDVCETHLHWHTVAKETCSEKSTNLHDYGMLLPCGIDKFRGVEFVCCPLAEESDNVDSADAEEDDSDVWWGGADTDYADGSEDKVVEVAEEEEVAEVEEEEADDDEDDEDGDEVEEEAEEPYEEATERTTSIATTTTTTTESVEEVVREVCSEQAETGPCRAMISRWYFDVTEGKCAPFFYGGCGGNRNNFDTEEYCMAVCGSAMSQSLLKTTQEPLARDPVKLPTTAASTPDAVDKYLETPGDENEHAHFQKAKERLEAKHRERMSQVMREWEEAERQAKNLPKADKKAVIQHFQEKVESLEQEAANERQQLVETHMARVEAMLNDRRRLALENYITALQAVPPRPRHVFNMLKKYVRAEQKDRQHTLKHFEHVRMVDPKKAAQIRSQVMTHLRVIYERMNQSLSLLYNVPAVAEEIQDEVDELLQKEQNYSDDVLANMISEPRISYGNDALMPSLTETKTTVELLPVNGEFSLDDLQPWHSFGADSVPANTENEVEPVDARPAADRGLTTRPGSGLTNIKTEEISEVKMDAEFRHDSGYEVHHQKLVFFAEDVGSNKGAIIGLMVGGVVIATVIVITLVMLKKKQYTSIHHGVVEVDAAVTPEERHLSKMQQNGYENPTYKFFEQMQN
Sequence of Acetylcholinesterase (O42275 whole entry): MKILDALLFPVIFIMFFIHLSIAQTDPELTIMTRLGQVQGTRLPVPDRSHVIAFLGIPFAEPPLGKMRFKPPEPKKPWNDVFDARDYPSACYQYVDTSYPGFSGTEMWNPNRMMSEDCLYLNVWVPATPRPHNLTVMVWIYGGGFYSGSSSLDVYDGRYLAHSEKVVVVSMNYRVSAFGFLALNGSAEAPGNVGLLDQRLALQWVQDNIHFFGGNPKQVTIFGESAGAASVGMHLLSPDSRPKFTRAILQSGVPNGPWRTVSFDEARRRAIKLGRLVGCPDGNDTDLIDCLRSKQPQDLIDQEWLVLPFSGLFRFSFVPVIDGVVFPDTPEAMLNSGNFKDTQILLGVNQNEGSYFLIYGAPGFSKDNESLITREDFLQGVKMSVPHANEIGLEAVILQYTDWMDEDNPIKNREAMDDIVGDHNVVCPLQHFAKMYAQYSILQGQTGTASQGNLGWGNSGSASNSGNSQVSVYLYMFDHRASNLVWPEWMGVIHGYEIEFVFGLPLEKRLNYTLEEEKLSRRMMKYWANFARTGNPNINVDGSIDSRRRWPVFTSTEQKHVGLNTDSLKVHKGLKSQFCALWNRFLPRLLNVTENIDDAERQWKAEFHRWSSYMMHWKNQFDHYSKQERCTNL

Structure (SMILES)	pIC50 (Acetylcholinesterase)	Activity [1]	Activity (SH-SY5Y [5])	other results
O=C(/C=C/C=C/c1ccccc1)NCCCCNc1c2c(nc3ccccc13)CCCC2	6.21	23%	–	Activity (SH-SY5Y [2]): Toxic
O=C(/C=C/c1ccc2c(c1)OCO2)NCCCNc1c2c(nc3ccccc13)CCCC2	6.89	15.4%	Toxic	pIC50 [3]: 5.24; inhibition [4]: 8.27%
O=C(/C=C/C=C/c1ccccc1)NCCCNc1c2c(nc3ccccc13)CCCC2	6.54	16.9%	Toxic	–
O=C(/C=C/c1ccccc1)NCCNc1c2c(nc3ccccc13)CCCC2	6.11	7.9%	Toxic	–
O=C(/C=C/c1ccccc1)NCCCCNc1c2c(nc3ccccc13)CCCC2	6.07	22.5%	–	Activity (SH-SY5Y [6]): Active
O=C(/C=C/C=C/c1ccc(O)c(O)c1)NCCNc1c2c(nc3ccccc13)CCCC2	5.96	–	Non-toxic	pEC50 [7]: 5.02; Activity (SH-SY5Y [8]): Active
O=C(/C=C/c1ccc2c(c1)OCO2)NCCNc1c2c(nc3ccccc13)CCCC2	6.74	12.2%	Toxic	inhibition [4]: 30.9%
COc1ccc(/C=C/C(=O)NCCNc2c3c(nc4ccccc24)CCCC3)cc1OC	7.05	8.8%	–	pIC50 [3]: 4.98; inhibition [4]: 19.6%; Activity (SH-SY5Y [6]): Active; Activity (SH-SY5Y [9]): Active
O=C(/C=C/c1ccc(O)c(O)c1)NCCCNc1c2c(nc3ccccc13)CCCC2	6.01	–	Toxic	pEC50 [7]: 4.95; Activity (SH-SY5Y [8]): Active
O=C(/C=C/C=C/c1ccc2c(c1)OCO2)NCCCNc1c2c(nc3ccccc13)CCCC2	6.89	20.8%	Toxic	pIC50 [3]: 5.60; inhibition [4]: 72.2%
O=C(/C=C/C=C/c1ccc2c(c1)OCO2)NCCNc1c2c(nc3ccccc13)CCCC2	6.52	26.2%	Toxic	Activity (SH-SY5Y [2]): Toxic
COc1ccc(/C=C/C(=O)NCCCCNc2c3c(nc4ccccc24)CCCC3)cc1OC	6.41	16.1%	–	–
O=C(/C=C/c1ccc(O)c(O)c1)NCCNc1c2c(nc3ccccc13)CCCC2	6.08	–	Toxic	pEC50 [7]: 4.91
COc1ccc(/C=C/C(=O)NCCCNc2c3c(nc4ccccc24)CCCC3)cc1OC	7.05	16.8%	–	pIC50 [3]: 4.71; inhibition [4]: 56.5%; Activity (SH-SY5Y [9]): Active
O=C(/C=C/c1ccccc1)NCCCNc1c2c(nc3ccccc13)CCCC2	6.42	16.3%	Toxic	Activity (SH-SY5Y [10]): Toxic
O=C(/C=C/C=C/c1ccc(O)c(O)c1)NCCCNc1c2c(nc3ccccc13)CCCC2	6.32	–	Non-toxic	pEC50 [7]: 5.04
O=C(/C=C/c1ccc2c(c1)OCO2)NCCCCNc1c2c(nc3ccccc13)CCCC2	6.14	18.6%	Toxic	–
O=C(/C=C/C=C/c1ccccc1)NCCNc1c2c(nc3ccccc13)CCCC2	6.49	15.6%	Toxic	Activity (SH-SY5Y [2]): Toxic
